Data on three compounds can be found in PMC4503722, “Novel Phenotypic Outcomes Identified for a Public Collection of Approved Drugs from a Publicly Accessible Panel of Assays” (PLoS ONE, 2015).

Where only a bound is given, the exact number is not on record here.

The test system of one assay is SNU-C1. The assay can be described thus: cells. The class given is cell-based. The settings on record: for Basal_Viability ATP SNU-C1 IC50/EC50: assay number 30.
For a further assay, the target named is T1, hp70S6K1 (RPS6KB1) (Homo sapiens, UniProt P23443).
T1 construct: purchased Cerep (LANCE kinase assay platform, contract assay)
The assay can be described thus: Cerep LANCE kinase assay hp70S6K1 (S1 assay 31). The class given is biochemical. Conditions: for hp70S6K1 LANCE IC50/EC50: assay number 31.

In the next assay the target is T2, hGSK3b (Homo sapiens, UniProt P49841).
T2 construct: purchased Cerep (LANCE kinase assay platform, contract assay)
Kind of assay: Cerep LANCE kinase assay hGSK3b (S1 assay 34). In kind it is biochemical. The settings on record: for hGSK3b LANCE IC50/EC50: assay number 34.

A further assay relates to HCT116. The assay can be described thus: cells. Conditions: basal; for Basal_Viability ATP HCT116 IC50/EC50: assay number 25. In kind it is cell-based.
The subject of assay [1] is nuclear β-catenin in C2C12 cells. The assay can be described thus: cells. Conditions: concentration response; for WntCondMedia_bCatenin C2C12 IC50/EC50: assay number 5. In kind it is cell-based.
A further assay has as its system SW480. The assay can be described thus: cells. In kind it is cell-based. The settings on record: basal.
For another assay, the system named is HT-29. Kind of assay: cells. The class given is cell-based. The settings on record: for Basal_Viability ATP HT-29 IC50/EC50: assay number 28.
The next assay concerns Colo320. The assay can be described thus: cells. The class given is cell-based. The settings on record: for Basal_Viability ATP Colo 320 IC50/EC50: assay number 27.
For assay [2], the system named is HCT116 cells treated with a GSK3β inhibitor. Kind of assay: cells. In kind it is cell-based. The settings on record: assay number 26; GSK3b inhibitor pretreated.
For the next assay, the system named is HeLa cells. Kind of assay: cells. In kind it is cell-based. The settings on record: for Hela CellCycMod PI 2N IC50/EC50: assay number 14; for Hela CellCycMod PI S Phase IC50/EC50: assay number 15; for Hela CellCycMod PI 4N IC50/EC50: assay number 16; for Hela CellCycMod PI MI IC50/EC50: assay number 17; for Hela CellCycMod PI Cell Number IC50/EC50: assay number 18.

The target of a further assay is T3, hFLT3 (Homo sapiens, UniProt P36888).
T3 construct: purchased Cerep (LANCE kinase assay platform, contract assay)
The assay can be described thus: Cerep LANCE kinase assay hFLT3 (S1 assay 35). In kind it is biochemical. Conditions: for hFLT3 LANCE IC50/EC50: assay number 35. In general terms: In TR-FRET formats the signal depends on donor and acceptor labels being close together.

For a further assay, the system named is RKO. Kind of assay: cells. Conditions: for Basal_Viability ATP RKO IC50/EC50: assay number 29. The class given is cell-based.
In a further assay the target is T4, hJAK2 (Homo sapiens, UniProt O60674).
T4 construct: purchased Cerep (LANCE kinase assay platform, contract assay)
Kind of assay: Cerep LANCE kinase assay hJAK2 (S1 assay 33). The class given is biochemical. The settings on record: for hJAK2 LANCE IC50/EC50: assay number 33.

The target in another assay is T5, hKDR (Homo sapiens, UniProt P35968).
T5 construct: purchased Cerep (LANCE kinase assay platform, contract assay)
The assay can be described thus: Cerep LANCE kinase assay hKDR (S1 assay 32). The class given is biochemical. The settings on record: for hKDR LANCE IC50/EC50: assay number 32.

The test system of the next assay is DLD-1. Kind of assay: cells. The class given is cell-based. The settings on record: assay number 23; basal.
The test system of assay [3] is alkaline phosphatase (ALP) activity in C2C12 cells. The class given is cell-based. Conditions: concentration response; for WntCondMedia_Alk Phos C2C12 IC50/EC50: assay number 6.
For assay [4], the system named is ECFC/ADSC co-culture cell nuclei number.
The subject of assay [5] is endothelial tube formation in co-cultures of ECFCs and ADSCs treated with VEGF. The assay can be described thus: cells. In kind it is cell-based, human.

T5 sequence (P35968 20-1356): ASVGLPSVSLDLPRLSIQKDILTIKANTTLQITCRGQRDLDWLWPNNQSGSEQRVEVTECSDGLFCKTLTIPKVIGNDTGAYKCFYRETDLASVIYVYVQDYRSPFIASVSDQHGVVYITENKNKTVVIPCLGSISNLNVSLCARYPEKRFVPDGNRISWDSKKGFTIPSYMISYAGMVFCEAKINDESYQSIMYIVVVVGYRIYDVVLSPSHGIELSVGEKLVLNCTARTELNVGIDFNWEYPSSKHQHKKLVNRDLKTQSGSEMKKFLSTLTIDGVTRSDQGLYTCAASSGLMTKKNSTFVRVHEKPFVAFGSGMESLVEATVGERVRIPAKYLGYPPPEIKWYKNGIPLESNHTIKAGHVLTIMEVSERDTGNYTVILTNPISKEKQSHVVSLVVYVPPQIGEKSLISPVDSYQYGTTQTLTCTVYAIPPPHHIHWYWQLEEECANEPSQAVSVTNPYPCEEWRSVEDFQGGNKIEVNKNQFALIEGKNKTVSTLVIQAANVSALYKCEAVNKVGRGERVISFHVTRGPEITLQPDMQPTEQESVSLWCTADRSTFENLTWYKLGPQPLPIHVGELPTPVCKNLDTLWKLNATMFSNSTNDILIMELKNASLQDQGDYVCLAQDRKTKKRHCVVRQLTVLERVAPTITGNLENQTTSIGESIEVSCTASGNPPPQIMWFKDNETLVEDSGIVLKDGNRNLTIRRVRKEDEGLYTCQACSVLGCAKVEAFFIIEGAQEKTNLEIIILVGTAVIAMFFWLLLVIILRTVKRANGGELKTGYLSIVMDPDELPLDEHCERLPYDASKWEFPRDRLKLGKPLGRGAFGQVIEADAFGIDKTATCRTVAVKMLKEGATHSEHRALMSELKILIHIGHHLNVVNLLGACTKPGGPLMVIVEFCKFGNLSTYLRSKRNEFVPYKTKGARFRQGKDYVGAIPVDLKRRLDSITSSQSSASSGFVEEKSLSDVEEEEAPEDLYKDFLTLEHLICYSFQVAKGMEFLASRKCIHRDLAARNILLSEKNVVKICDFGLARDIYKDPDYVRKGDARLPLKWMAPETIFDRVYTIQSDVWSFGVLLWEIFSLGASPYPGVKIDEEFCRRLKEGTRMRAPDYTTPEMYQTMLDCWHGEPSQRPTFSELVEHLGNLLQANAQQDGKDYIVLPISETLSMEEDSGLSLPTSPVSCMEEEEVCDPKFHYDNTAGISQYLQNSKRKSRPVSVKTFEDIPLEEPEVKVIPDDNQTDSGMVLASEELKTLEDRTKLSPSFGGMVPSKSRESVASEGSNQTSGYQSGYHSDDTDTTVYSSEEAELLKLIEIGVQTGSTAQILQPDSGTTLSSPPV
T1 sequence (P23443 whole entry): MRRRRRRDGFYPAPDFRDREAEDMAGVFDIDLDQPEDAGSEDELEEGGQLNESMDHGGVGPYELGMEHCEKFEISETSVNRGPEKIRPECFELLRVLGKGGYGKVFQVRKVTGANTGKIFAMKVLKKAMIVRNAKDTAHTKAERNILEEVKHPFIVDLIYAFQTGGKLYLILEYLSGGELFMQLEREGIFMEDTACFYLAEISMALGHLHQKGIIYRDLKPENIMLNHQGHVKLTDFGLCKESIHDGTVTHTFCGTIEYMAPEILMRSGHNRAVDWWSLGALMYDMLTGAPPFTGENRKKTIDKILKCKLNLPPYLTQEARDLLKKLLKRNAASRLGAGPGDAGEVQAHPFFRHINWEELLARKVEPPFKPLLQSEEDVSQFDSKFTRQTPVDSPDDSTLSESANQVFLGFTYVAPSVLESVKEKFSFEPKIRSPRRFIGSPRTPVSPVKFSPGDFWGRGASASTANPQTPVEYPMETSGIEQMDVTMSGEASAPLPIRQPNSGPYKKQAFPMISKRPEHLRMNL
T2 sequence (P49841 whole entry): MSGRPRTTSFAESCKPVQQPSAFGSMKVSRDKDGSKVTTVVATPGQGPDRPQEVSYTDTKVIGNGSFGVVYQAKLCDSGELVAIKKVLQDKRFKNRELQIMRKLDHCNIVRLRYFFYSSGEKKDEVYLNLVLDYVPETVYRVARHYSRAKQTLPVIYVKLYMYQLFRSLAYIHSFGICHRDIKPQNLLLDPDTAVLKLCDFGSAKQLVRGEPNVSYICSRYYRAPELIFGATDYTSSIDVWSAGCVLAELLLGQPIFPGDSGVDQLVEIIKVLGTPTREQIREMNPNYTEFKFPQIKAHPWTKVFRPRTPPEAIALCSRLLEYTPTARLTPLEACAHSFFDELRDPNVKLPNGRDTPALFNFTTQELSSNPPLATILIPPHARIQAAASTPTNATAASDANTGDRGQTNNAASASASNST
T3 sequence (P36888 27-993): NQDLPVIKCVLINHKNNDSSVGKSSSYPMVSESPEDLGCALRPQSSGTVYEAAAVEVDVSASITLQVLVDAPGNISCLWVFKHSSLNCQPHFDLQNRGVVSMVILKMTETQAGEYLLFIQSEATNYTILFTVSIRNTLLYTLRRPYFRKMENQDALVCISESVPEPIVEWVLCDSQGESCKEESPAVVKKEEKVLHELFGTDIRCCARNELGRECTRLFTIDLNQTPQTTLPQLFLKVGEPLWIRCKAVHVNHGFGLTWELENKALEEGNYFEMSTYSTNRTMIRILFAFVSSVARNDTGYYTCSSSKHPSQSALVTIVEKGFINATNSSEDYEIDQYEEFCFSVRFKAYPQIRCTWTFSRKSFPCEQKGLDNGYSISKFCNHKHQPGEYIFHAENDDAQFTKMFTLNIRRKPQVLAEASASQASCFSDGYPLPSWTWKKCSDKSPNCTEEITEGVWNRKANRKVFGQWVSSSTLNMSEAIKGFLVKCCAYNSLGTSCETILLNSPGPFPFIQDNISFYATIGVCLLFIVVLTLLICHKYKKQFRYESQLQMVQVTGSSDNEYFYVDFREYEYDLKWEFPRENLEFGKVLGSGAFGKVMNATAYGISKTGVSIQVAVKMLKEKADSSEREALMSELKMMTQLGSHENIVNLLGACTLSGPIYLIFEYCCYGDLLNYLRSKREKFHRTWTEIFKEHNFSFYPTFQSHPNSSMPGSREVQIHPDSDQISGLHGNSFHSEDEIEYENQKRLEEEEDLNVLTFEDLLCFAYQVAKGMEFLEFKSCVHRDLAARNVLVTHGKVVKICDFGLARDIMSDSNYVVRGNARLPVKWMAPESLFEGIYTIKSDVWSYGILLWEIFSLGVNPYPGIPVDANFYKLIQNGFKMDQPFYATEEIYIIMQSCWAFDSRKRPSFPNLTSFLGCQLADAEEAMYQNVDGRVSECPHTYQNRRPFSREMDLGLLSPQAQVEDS
T4 sequence (O60674 whole entry): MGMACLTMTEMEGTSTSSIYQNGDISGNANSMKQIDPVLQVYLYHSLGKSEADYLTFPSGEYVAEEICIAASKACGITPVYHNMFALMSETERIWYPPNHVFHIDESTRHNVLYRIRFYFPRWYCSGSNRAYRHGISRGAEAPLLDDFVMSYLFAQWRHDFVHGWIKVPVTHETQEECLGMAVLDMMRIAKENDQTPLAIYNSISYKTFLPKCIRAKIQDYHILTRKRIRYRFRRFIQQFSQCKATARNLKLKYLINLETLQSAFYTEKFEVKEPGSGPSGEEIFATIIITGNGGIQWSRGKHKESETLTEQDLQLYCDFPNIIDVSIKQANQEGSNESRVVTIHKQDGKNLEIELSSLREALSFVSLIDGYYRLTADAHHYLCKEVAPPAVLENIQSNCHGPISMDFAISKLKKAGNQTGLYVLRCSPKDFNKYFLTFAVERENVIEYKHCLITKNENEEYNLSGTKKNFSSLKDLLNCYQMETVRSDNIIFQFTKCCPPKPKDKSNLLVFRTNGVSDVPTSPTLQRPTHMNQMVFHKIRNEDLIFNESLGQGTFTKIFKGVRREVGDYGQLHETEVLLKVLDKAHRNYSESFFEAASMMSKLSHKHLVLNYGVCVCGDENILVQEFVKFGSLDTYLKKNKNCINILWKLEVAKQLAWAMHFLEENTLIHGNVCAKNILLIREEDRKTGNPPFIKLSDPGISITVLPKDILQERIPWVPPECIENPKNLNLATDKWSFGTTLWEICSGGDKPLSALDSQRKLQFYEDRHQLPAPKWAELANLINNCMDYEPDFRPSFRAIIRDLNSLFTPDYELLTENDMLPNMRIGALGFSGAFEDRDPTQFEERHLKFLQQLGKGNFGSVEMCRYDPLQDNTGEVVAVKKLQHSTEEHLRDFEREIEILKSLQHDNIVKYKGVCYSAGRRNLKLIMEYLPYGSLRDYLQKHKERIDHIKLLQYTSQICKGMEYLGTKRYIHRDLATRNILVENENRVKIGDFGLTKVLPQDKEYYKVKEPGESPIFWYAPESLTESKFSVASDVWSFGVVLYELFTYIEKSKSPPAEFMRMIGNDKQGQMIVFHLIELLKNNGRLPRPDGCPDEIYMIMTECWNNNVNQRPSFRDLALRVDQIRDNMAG

Take `Cc1nc(N)nc(N)c1-c1ccc(Cl)c(Cl)c1` [NCGC00253626-01]: in the assay with SNU-C1 (basal), the “Basal_Viability ATP SNU-C1 IC50/EC50” value is recorded as 2.165 µM. The “hp70S6K1 LANCE IC50/EC50” value on hp70S6K1 (RPS6KB1) is reported as over 20 µM. For the same compound, the “hGSK3b LANCE IC50/EC50” value on hGSK3b was over 20 µM. In the assay on HCT116, the “Basal_Viability ATP HCT116 IC50/EC50” value is 0.4134 µM. For the same compound, in [1], the “WntCondMedia_bCatenin C2C12 IC50/EC50” value is given as 0.0504 µM. For the same compound, the “Basal_Viability ATP SW480 IC50/EC50” value with SW480 (assay number 24) is given as 0.512 µM. Also, the “Basal_Viability ATP HT-29 IC50/EC50” value in the assay on HT-29 (basal) was 0.9316 µM. The “Basal_Viability ATP Colo 320 IC50/EC50” value with Colo320 (basal) worked out at 2.03 µM. Moreover, the “GSK3b inh pretreated_Viability ATP HCT116 IC50/EC50” value in [2] turned out to be 0.05888 µM. The “Hela CellCycMod PI 2N IC50/EC50” value with HeLa cells (2N) is over 10 µM. Also, in the assay with HeLa cells, the “Hela CellCycMod PI S Phase IC50/EC50” value is given as over 10 µM and the “Hela CellCycMod PI Cell Number IC50/EC50” value amounted to 1.0068 µM. For the same compound, the “Hela CellCycMod PI 4N IC50/EC50” value in the assay with HeLa cells (4N) is reported as over 10 µM. The “Hela CellCycMod PI MI IC50/EC50” value with HeLa cells (MI) is over 10 µM. In addition, the “hFLT3 LANCE IC50/EC50” value at hFLT3 is over 20 µM. Further, the “Basal_Viability ATP RKO IC50/EC50” value in the assay with RKO (basal) stood at 0.1171 µM. Moreover, the “hJAK2 LANCE IC50/EC50” value on hJAK2 was over 20 µM. Also, on hKDR, the “hKDR LANCE IC50/EC50” value was over 20 µM. Besides, the “Basal_Viability ATP DLD-1 IC50/EC50” value in the assay with DLD-1 amounted to 0.6337 µM. Besides, the “WntCondMedia_Alk Phos C2C12 IC50/EC50” value in assay [3] is listed as 0.0299 µM.
For `COC(=O)Nc1nc2ccc(C(=O)C3CC3)cc2[nH]1` [NCGC00262953-01], the “IC50/EC50, Basal_Viability ATP SNU-C1 (assay number 30)” value with SNU-C1 (basal) is over 20 µM. Further, the “IC50/EC50, hp70S6K1 LANCE (assay number 31)” value on hp70S6K1 (RPS6KB1) is over 20 µM. Besides, the “IC50/EC50, hGSK3b LANCE (assay number 34)” value against hGSK3b came out at 14.94 µM. Moreover, in the assay on HCT116, the “IC50/EC50, Basal_Viability ATP HCT116 (assay number 25)” value came to 0.1735 µM. Moreover, in [1], the “IC50/EC50, WntCondMedia_bCatenin C2C12 (assay number 5)” value amounted to 0.3486 µM. The “IC50/EC50, Basal_Viability ATP SW480 (assay number 24)” value with SW480 was over 20 µM. In addition, in assay [4], the “IC50/EC50, VEGF_ADSC\ECFC Angio Hoechst NucArea (assay number 3)” value is over 10 µM. Also, in the assay with HT-29 (basal), the “IC50/EC50, Basal_Viability ATP HT-29 (assay number 28)” value worked out at 1.6823 µM. Moreover, the “IC50/EC50, VEGF_ADSC\ECFC Angio CD31 TubeArea (assay number 2)” value in [5] was found to be 1.1914 µM. Besides, the “IC50/EC50, Basal_Viability ATP Colo 320 (assay number 27)” value with Colo320 (basal) is recorded as 0.1556 µM. For the same compound, the “IC50/EC50, Hela CellCycMod PI 2N (assay number 14)” value in the assay with HeLa cells (2N) stood at 0.4173 µM. In the assay with HeLa cells (4N), the “IC50/EC50, Hela CellCycMod PI 4N (assay number 16)” value is reported as 0.4164 µM. In addition, the “IC50/EC50, Hela CellCycMod PI Cell Number (assay number 18)” value with HeLa cells (Cell Number) is 0.2969 µM. Besides, in the assay on HeLa cells (MI), the “IC50/EC50, Hela CellCycMod PI MI (assay number 17)” value is 0.4024 µM. Besides, the “IC50/EC50, Hela CellCycMod PI S Phase (assay number 15)” value in the assay on HeLa cells (S Phase) was over 10 µM. Moreover, the “IC50/EC50, hFLT3 LANCE (assay number 35)” value at hFLT3 came out at 6.14 µM. Further, in the assay with RKO (basal), the “IC50/EC50, Basal_Viability ATP RKO (assay number 29)” value is recorded as 0.1622 µM. The “IC50/EC50, hJAK2 LANCE (assay number 33)” value at hJAK2 is recorded as over 20 µM. Also, on hKDR, the “IC50/EC50, hKDR LANCE (assay number 32)” value is 15.14 µM. Besides, in assay [3], the “IC50/EC50, WntCondMedia_Alk Phos C2C12 (assay number 6)” value was found to be 0.6836 µM.
For `CC[C@]1(O)C[C@@H]2CN(CCc3c([nH]c4ccccc34)[C@@](C(=O)OC)(c3cc4c(cc3OC)N(C)[C@H]3[C@@](O)(C(=O)OC)[C@H](OC(C)=O)[C@]5(CC)C=CCN6CC[C@]43[C@@H]65)C2)C1.O=S(=O)(O)O` [NCGC00263548-01], in the assay with SNU-C1, the “Basal_Viability ATP SNU-C1 IC50/EC50” value is recorded as over 20 µM. In addition, the “hp70S6K1 LANCE IC50/EC50” value at hp70S6K1 (RPS6KB1) is given as over 20 µM. Moreover, the “hGSK3b LANCE IC50/EC50” value at hGSK3b is reported as over 20 µM. The “Basal_Viability ATP HCT116 IC50/EC50” value with HCT116 was determined as 0.001 µM. Further, in [1], the “WntCondMedia_bCatenin C2C12 IC50/EC50” value was found to be 0.0058 µM. Moreover, the “VEGF_ADSC\ECFC Angio Hoechst NucArea IC50/EC50” value in assay [4] was over 10 µM. The “Basal_Viability ATP HT-29 IC50/EC50” value with HT-29 was found to be 0.001 µM. Moreover, the “VEGF_ADSC\ECFC Angio CD31 TubeArea IC50/EC50” value in [5] was determined as 2.3 nM. Moreover, the “Basal_Viability ATP Colo 320 IC50/EC50” value in the assay with Colo320 is 0.001 µM. The “GSK3b inh pretreated_Viability ATP HCT116 IC50/EC50” value in assay [2] is listed as 0.001 µM. Also, the “Hela CellCycMod PI 2N IC50/EC50” value with HeLa cells (2N) came out at 0.0033 µM. For the same compound, in the assay on HeLa cells, the “Hela CellCycMod PI S Phase IC50/EC50” value is listed as over 10 µM and the “Hela CellCycMod PI Cell Number IC50/EC50” value is recorded as 0.0026 µM. Also, in the assay on HeLa cells (4N), the “Hela CellCycMod PI 4N IC50/EC50” value was 0.0032 µM. In the assay on HeLa cells (MI), the “Hela CellCycMod PI MI IC50/EC50” value was found to be 0.0032 µM. Further, at hFLT3, the “hFLT3 LANCE IC50/EC50” value is listed as over 20 µM. In addition, the “Basal_Viability ATP RKO IC50/EC50” value with RKO is reported as 0.001 µM. Moreover, on hJAK2, the “hJAK2 LANCE IC50/EC50” value is reported as over 20 µM. For the same compound, on hKDR, the “hKDR LANCE IC50/EC50” value is reported as over 20 µM. In addition, the “WntCondMedia_Alk Phos C2C12 IC50/EC50” value in assay [3] worked out at 0.0089 µM.
